In one data set the test system is RAW 264.7 cells. Briefly: Cytotoxicity test (MTT colorimetric assay). It is filed as cell-based. The source says:
MTT (3-(4,5-dimethylthiazol-2-yl)-2,5-diphenyl tetrazolium bromide is yellow when dissolved in a phenol red-free medium. The yellow MTT solution is reduced by succinate dehydrogenase in mitochondria of living cells into purple insoluble formazan crystals, deposited in the cells generating blue formazan crystals. The amount of formazan crystals produced is proportional to the number of viable cells (succinate dehydrogenase in dead cells is degraded and unable to reduce MTT). Formazan crystals can be dissolved in acidic isopropanol or dimethyl sulfoxide (DMSO), and an enzyme linked immunosorbent assay detector can be used to measure the light absorption value, therefore, MTT can be used as a marker for cell survival rate.
Cytotoxicity test of the compound of formula I in RAW 264.7 cells was studied and detected by using the MTT colorimetric assay. […] After being cultured in an incubator at 37° C. for 4 hours, equivalent amount of cell culture solution by volume was added into dimethyl sulfoxide to dissolve MTT Formazan, 100 μl was respectively collected and placed in a 96 well-plate, and the light absorption value at 570 nm was determined by using an enzyme immunosorbent assay detector. The Cell survival rate (%) was calculated by using the following formula: (light absorption value of drug-treated cells)/light absorption value of culture solution-treated cells)×100%.
Firstly, we would like to know whether the compound of formula I were toxic to RAW 264.7 cells, and concentrations appropriate for subsequent experiments were to be selected. After being treated with 0, 1, 5, 10, 20, 40, 80 μg/ml of the compound of formula I for 72 hours, detected with the MTT colorimetric assay. […] To confirm the selected concentrations of the compound of formula I would not produce cytotoxin in the subsequent experiments, 10 μg/ml, 20 μg/ml of the compound of formula I were respectively used for treatment of 3, 6, 9, 12 days, the culture solution was replaced with fresh ones of the same condition once every three days and then detected with the MTT colorimetric assay.
On the technique in general: Tetrazolium dyes change colour on reduction, which living cells bring about.

The subject of data set [1] is osteoclast differentiation induced by receptor activator of nuclear factor κB ligand in RAW 264.7 cells. Nature of the data set: Osteoclast differentiation test (tartrate-resistant acid phosphatase staining). The class given is cell-based, mouse. An excerpt: The present invention used monocyte/macrophage cell line RAW 264.7 from mouse as an experimental model of the osteoclast differentiation system. RAW 264.7 cells differentiated into osteoclasts in an environment containing receptor activator of nuclear factor κB ligand. RAW 264.7 was obtained from a tumor induced by Abelson murine leukemia virus and purchased from the American Type Culture Collection (ATCC; Rockville, Md.). To culture osteoclasts, RAW 264.7 cells were used, cultured in a 24-well plate, the number of cells in each well was 1×10^4 cell/ml and cultured in a medium containing 100 ng/ml of receptor activator of nuclear factor κB ligand or co-treated with different concentrations of the compound of formula I.
In order to simulate physiological functions of the bone, we simulated the in vivo environment and some hormones essential to differentiation were added. The hormone environment suitable for […] cells was simulated for osteoclast differentiation. […] Markers for osteoclast differentiation were evaluated by staining with tartrate-resistant acid phosphatase. […]
Osteoclast formation was detected by quantifying the staining positive rate of tartrate-resistant acid phosphatase (387-A, Sigma-Aldrich, St. Louis, Mo.). […]

As usually defined, the IC50 is the point on the concentration scale where inhibition reaches its midpoint. For `CNC(=O)N[C@]1(C)CCC[C@@]2(C)C3CC[C@@]4(C)C[C@]3(CCC21)CC4=O` (single isomer, unassigned; ent-16) [compound of formula I, ent-16-oxobeyeran-19-N-methylureido], the “cytotoxicity over time (MTT)” value in the data set on RAW 264.7 cells (10 μg/ml, 3, 6, 9, 12 days) is listed as “no cytotoxin was produced”. For the same molecule, the “concentration above which cytotoxic (decreased survival rate)” value in the data set with RAW 264.7 cells (72 hours) was “higher than 40 μg/ml”. Further, the IC50 with RAW 264.7 cells (Mus musculus, RAW264.7, 72 hours, 0-80 μg/ml, read-out: IC50 (cell survival rate, MTT)) is about 40 µg/mL. Further, the “osteoclast differentiation over time (TRAP-positive multinucleated cells)” value in data set [1] (10 μg/ml co-treated with 100 ng/ml RANKL, 2, 4, 6 days) was “significant and inhibitory effect”. In addition, the “level of osteoclast differentiation (TRAP-positive multinucleated cells)” value in data set [1] (10 μg/ml co-treated with 100 ng/ml RANKL, 6 days) was “decrease in the level of osteoclast differentiation”.

The values are drawn from patent US20180042874A1, “METHOD FOR TREATING OSTEOPOROSIS” (China Medical University, priority 2016, published 2018).
